Test results: patent publication US7626044B2, “Triptolide derivatives and their uses” (priority 2002, dated 2009)

Key:
[1] = tested on: C57BL/6 skin allograft on BALB/c mice; assay: Murine skin allograft transplantation; assay type: in vivo, mouse; conditions: C57BL/6 skin to BALB/c mice; daily i.p.; preliminary results
Description: Full-thickness tail skin was aseptically harvested from adult C57BL/6 mice.
The skin allografts were transplanted onto the flank of adult recipient BALB/c mice.
Engrafted mice were administered LLDT-8 daily or, as a control, phosphate-buffered saline (PBS) by intraperitoneal (i.p.) injection.

[2] = tested on: BEL-7402 (human hepatic carcinoma cell); assay: Tumor cell proliferation, BEL-7402; assay type: cell-based; conditions: read-out: Inhibitory effect on tumor cell proliferation IC50
[3] = tested on: HO-8910 (human ovary cancer cells); assay: Tumor cell proliferation, HO-8910; assay type: cell-based; conditions: read-out: Inhibitory effect on tumor cell proliferation IC50
[4] = tested on: rat adjuvant arthritis; assay: Rat adjuvant arthritis (AA), therapeutic effect; assay type: in vivo; conditions: i.p. for 14 days from day 19; especially at 2 mg/Kg/d
Description: Rats were immunized on day 0 by intradermal injection of Complete Freund's adjuvant (CFA), containing 10 mg heat-inactivated BCG in 1 ml paraffin oil, into the left hind paw in 0.1 ml for each rat. Inflammatory polyarthritis was induced in all immunized rats. Swelling in left paw and polyarthritic symptoms were seen from day 1, lasted for 4 days, and then diminished. Swelling in the same paw occurred again from day 8, reached the peak at day 16. The secondary symptoms, including the right hind paw swelling and polyarthritis, were seen from day 12. The polyarthritis severity was graded on a scale of 0-4: 0=no swelling; 1=isolated phalanx joint involvement; 2=involvement of phalanx joint and digits; 3=involvement of the entire region down to the ankle; 4=involvement of entire paw, including ankle.
Right hind paw volume was determined before immunization (basic value, day 0) and repeated every 3 days. Animals were sacrificed on day 15, and thymus and spleen were harvested for thymus and spleen index assessment. Result: The secondary symptoms were established when the right hind paw severely swelled 19 days after adjuvant injection. […] Comparing with AA model rat, LLDT-8 treatment, especially at dose of 2 mg/Kg/d, markedly withdrew the symptoms (FIG. 16 and FIG. 17).

[5] = tested on: rat adjuvant arthritis; assay: Rat adjuvant arthritis (AA), drug prevention; assay type: in vivo
Description: SD rats were immunized on day 0 by intradermal injection of Complete Freund's adjuvant (CFA), containing 10 mg heat-inactivated BCG in 1 ml paraffin oil, into the left hind paw in 0.1 ml for each rat. Right hind paw volume was determined before immunization (basic value, day 0) and repeated every 4 days from day 12. The polyarthritis severity was graded on a scale of 0-4: 0=no swelling; 1=isolated phalanx joint involvement; 2=involvement of phalanx joint and digits; 3=involvement of the entire region down to the ankle; 4=involvement of entire paw, including ankle. The maximum joint score was 16 for each rat.
Lymphocyte proliferation assay: Splenocytes were prepared aseptically from AA rat at day 28 and resuspended in RPMI-1640 medium supplemented with 10% fetal bovine serum.
5×10^5 cells each well were inoculated into 96-well plate with ConA or LPS in a final volume of 200 μl. Cells were cultured in 5% CO2 incubator at 37° C. for 48 h. Cells were pulsed with 1.9×10^10 Bq/well of [^3H]-thymidine 7-8 h before harvest. After the culture finished, cells were harvested onto glass fiber filters and the incorporated radioactivity was counted by a Beta Scintillator (MicroBeta Trilux, PerkinElmer Life Sciences).

[6] = tested on: Sac-stimulated lymphocytes; assay: Cytokine production from Sac-stimulated lymphocytes (ELISA); assay type: cell-based, mouse; conditions: for IFN-γ production by lymphocytes stimulated with Sac, Mean Value: without drug 1302.6; for IL-12 production by lymphocytes stimulated with Sac: without drug 980; for IL-6 production by lymphocytes stimulated with Sac: without drug 1528; for IL-10 production by lymphocytes stimulated with Sac: without drug 2306; for TNF-α production by lymphocytes stimulated with Sac: without drug 4062
Description: Mice were sacrificed by cervical dislocation, and spleens were collected under sterile conditions then teased through a nylon mesh. Erythrocytes were lysed. Cells were washed and resuspended at 5×10^6/ml in RPMI-1640 media with 10% FBS.
1 ml of spleen cells were treated with or without ConA (5 μg/ml) or Sac (1:10000) and in the presence or absence of drugs in a final volume of 2 ml.
After 24 h culture at 37° C., 5% CO2 in a humidified incubator, cell-free supernatant was collected and frozen at −20° C. for ELISA.
TMB was taken as the enzyme substrate. The absorbance was measured at 450/570 nm by BioRad microplate reader. […]

In the case of `CC(C)[C@]12O[C@H]1[C@@H]1O[C@]13[C@]1(O[C@H]1C[C@@]1(O)C4=C(CC[C@]31C)C(=O)OC4)[C@@H]2O` [LLDT-8, (5R)-5-hydroxytriptolide], the murine allograft survival [1] is reported as “prolonged murine allograft survival”, the IC50 [2] is reported as 85 nM and the IC50 [3] is reported as 220 nM. For the same compound, the “polyarthritic symptoms (therapeutic)” value [4] was “effectively cured the polyarthritic symptoms”, the “body weight decrease in AA rat” value ([5]; LLDT-8 3, 1 and 0.2 mg/Kg/d, CsA 10 mg/Kg/d) was “abrogation of body weight decrease” and the “immune cell infiltration, synovial tissue proliferation, cartilage erosion” value ([5]; compared with AA model group) was “marked decrease of immune cell infiltration, smaller degree of synovial tissue proliferation, and less cartilage erosion”. For the same compound, the “right hind paw swelling and polyarthritic symptoms” value ([5]; i.p. day −2 to day 28, LLDT-8 3, 1 and 0.2 mg/Kg/d, CsA 10 mg/Kg/d) was “diminished the right hind paw swelling and polyarthritic symptoms”, the polyarthritis severity ([5]; score 0-4 per paw) was “amelioration of established polyarthritis” and the “proliferation of B splenocytes induced by LPS” value ([5]; splenocytes from AA rat at day 28) was “inhibited the proliferation of B splenocytes induced by LPS”. The “IFN-γ production by lymphocytes stimulated with Sac, Mean Value” (“IFN-γ production” for short) ([6]; 0.01 nM) was 809.7 pg/mL, the “IFN-γ production” value ([6]; 0.1 nM) was 850.5 pg/mL and the “IL-12 production by lymphocytes stimulated with Sac” value (shortened to “IL-12 production”) ([6]; 0.3 nM) was 917 pg/mL. For the same compound, the “IL-6 production by lymphocytes stimulated with Sac” value (“IL-6 production” below) ([6]; 0.3 nM) was 1585 pg/mL, the “IL-10 production by lymphocytes stimulated with Sac” value (“IL-10 production” for short) ([6]; 0.3 nM) was 2866 pg/mL and the “TNF-α production by lymphocytes stimulated with Sac” value (shortened to “TNF-α production”) ([6]; 0.3 nM) was 4686 pg/mL. For the same compound, the “IFN-γ production” value ([6]; 1 nM) was 810.3 pg/mL, the “IL-12 production” value ([6]; 3 nM) was 939 pg/mL and the “IL-6 production” value ([6]; 3 nM) was 1403 pg/mL. The “IL-10 production” value ([6]; 3 nM) was 2816 pg/mL, the “TNF-α production” value ([6]; 3 nM) was 3899 pg/mL and the “IFN-γ production” value ([6]; 10 nM) was 465.3 pg/mL. For the same compound, the “IL-12 production” value ([6]; 30 nM) was 602 pg/mL, the “IL-6 production” value ([6]; 30 nM) was 989 pg/mL and the “IL-10 production” value ([6]; 30 nM) was 3262 pg/mL. For the same compound, the “TNF-α production” value ([6]; 30 nM) was 3649 pg/mL and the “IFN-γ production” value ([6]; 100 nM) was 227.4 pg/mL.
